The record followed here is US8119667B2, “Carbonates of fenicol antibiotics” (Schering-Plough Animal Health Corporation, priority 2005, dated 2012).

One series is described as follows: Aqueous solubility. The format is physicochemical. Particulars: aqueous medium (not further specified). As for the experimental part: In some therapeutic applications florfenicol is administered in concentrated organic solution subcutaneously where it is known to form localized depot of the drug which results in the desired sustained release of the drug into the circulation. In such cases solubility of florfenicol in aqueous media represents one of important factors determining the rate of the sustained release. Another important factor affecting the sustained release of florfenicol from the subcutaneous depot site is the concentration of the dosing solution and the solvent composition of the formulation. Apart from the broader range of solvents which can be used for acceptable formulations of florfenicol benzylic carbonate prodrugs these prodrugs also allow a wide range of aqueous solubilities. Solubilities achieved with these prodrugs range from slightly to dramatically lower than that of florfenicol. Reduced aqueous solubilities of such prodrugs may be useful in controlling the rate of dissolution of the prodrug at the subcutaneous depot site and may allow achieving optimized sustained release of the parent drug.

Series [1] is described as follows: In vivo release of florfenicol: plasma levels after prodrug administration to rats. Details: species or system Rat. To be noted: IV. As for the experimental part: The pharmacokinetic profile of active antibiotic after prodrug administration, in vivo, was determined, as follows: • 1. In vivo release of active antibiotic confirmed in two different animal species: • The prodrug compound of Example 18 was administered by an intravenous (“IV”) route to rat and cattle subjects, followed by determination of florfenicol concentrations in the plasma collected over time. • The data of Table 8, below, illustrates the plasma levels of florfenicol that resulted following IV administration of the prodrug compound of Example 18, to both rat and cattle. • 4. Time of release of active moiety: • a.

A short description of series [2]: In vivo release of florfenicol: plasma levels after prodrug administration to cattle. To be noted: for AUC: bovine, plasma, sc, 40 mg/kg. As for the experimental part:
The pharmacokinetic profile of active antibiotic after prodrug administration, in vivo, was determined, as follows: • 1. In vivo release of active antibiotic confirmed in two different animal species: • The prodrug compound of Example 18 was administered by an intravenous (“IV”) route to rat and cattle subjects, followed by determination of florfenicol concentrations in the plasma collected over time. • The data of Table 8, below, illustrates the plasma levels of florfenicol that resulted following IV administration of the prodrug compound of Example 18, to both rat and cattle. • 2. Active antibiotic is released from the prodrug irrespective of route of administration of the prodrug: • The data of Table 9, below, illustrates the plasma levels of florfenicol that resulted following administration of the prodrug compound of Example 2, by two different routes, i.e., IV and subcutaneous (“SC”). • 3. A dose-dependant increase in the release of active moiety: • The data of table 10, below, confirms a dose-dependent increase in the plasma levels of active antibiotic (florfenicol) following administration of rising doses of prodrug compound of Example 2. • 4. Time of release of active moiety: • a. […] The data of tables 13 and 14, below, confirms that the active antibiotic is quickly released from the prodrug compound of Example 2, when administered by the IV and SC routes in cattle. The release kinetics of the compound of Example 2 were compared with administration in a formulation with a triacetin/benzyl alcohol (ratio of 2:1 wt/vol) and with administration in a formulation of triacetin/2-pyrrolidinone (ratio of 2:1 wt/vol). The study was conducted in cattle (n=3).

The test system of series [3] is naturally occurring bovine respiratory disease (BRD). Briefly: Therapeutic efficacy of a single SC dose in cattle with naturally occurring bovine respiratory disease. The format is in vivo. The source says:
Therapeutic efficacy of a single dose of Nuflor® (Schering-Plough Animal Health) was compared with a single dose of the prodrug compound of Example 2 after SC administration in cattle suffering from naturally occurring bovine respiratory disease (BRD).

Series [4] is described as follows: In vitro enzymatic release of parent florfenicol from prodrugs in bovine serum. The format is in vitro ADME. To be noted: 37° C. The source says:
The ability of a prodrug derivative of a parent drug molecule to act efficiently in vivo as a source of the free parent drug determines the utility of a particular prodrug for treatment. The prodrug's ability to release the parent drug in vivo, in the presence of endogenous enzymes, can be determined by measuring the systemic levels of the parent drug after administration of the prodrug to the animal. This releasibility can also be assessed in vitro by measuring the release of the parent drug after mixing with animal whole blood, plasma or serum. Selected benzylic carbonate prodrugs of florfenicol were tested for release of florfenicol after in vitro mixing with bovine serum. […] A general trend of more lipophilic carbonates of florfenicol showing higher rates of degradation and release seems to be present among the compounds tested.
50 microliter of stock solution of carbonate pro-drug (10 mg/mL in DMSO) was added to 5 mL donor bovine serum and mixed. Aliquots of 400 microliter of the resulting solution were transferred into 1.5 mL plastic centrifuge tubes. Each plastic tube was placed into at 37° C. water bath for incubation. Samples were removed at 0, 1, 2, 4, 8, and 24 hours, and after addition of 400 microliter of acetonitrile to stop the reaction, rapidly stirred for 30 seconds. The precipitate was removed by centrifugation on an Eppendorf 5415G at 14000 rpm for 5 minutes. The clear supernatant solution was sampled for the HPLC analysis. The peak area of florfenicol was used to calculate the conversion of the prodrugs.

Series [5] is described as follows: Syringeability of dosing solutions (dripping-syringe method). The format is physicochemical. Particulars: 418 mg/ml (35% weight by volume florfenicol); Triacetin/benzyl alcohol - 2:1; 15° C.
The nature of series [6]: Solubility in triacetin/benzyl alcohol 2:1 (volume/volume) solvent mixture. The series is classed as physicochemical. To be noted: 20° C. As for the experimental part: Florfenicol parent drug was not soluble in triacetin/benzyl alcohol 2:1 (volume/volume) even at concentrations as low as 10% (weight/volume). […] The combination of prodrug of Example 14 at 275 mg/ml and florfenicol at 100 mg/ml was soluble in triacetin/benzyl alcohol 2:1 (volume/volume) and provided a stable solution with 30% (weight/volume) content of florfenicol (Table 4, supra, entry 12).

≈ marks a conversion by molar mass, not a printed value. Where two headings read alike, the source gives them in different places.

`CCOC(=O)O[C@H](c1ccc(S(C)(=O)=O)cc1)[C@@H](CF)NC(=O)C(Cl)Cl` [Example 2, (1R,2S)-2-(2,2-dichloroacetamido)-3-fluoro-1-(4-(methylsulfonyl)phenyl)propyl ethyl carbonate]: the melting point fell in the range of 110 to 112 °C. For the same molecule, in the series “Aqueous solubility”, the concentration in solution (solubility) was 690 µg/mL (≈ 1600 µM). In series [1], the “time of release of active antibiotic (florfenicol) after administration” value is recorded as “less than half an hour”. The “time of release of active antibiotic (florfenicol) after administration” value in series [2] (IV) was “less than half an hour”. In addition, the AUC in series [2] (subcutaneous administration, read-out: Total Average AUC of the compound of Example 2 (unchanged prodrug)) is 38000 ng·h/mL. Also, in series [2] (subcutaneous administration, read-out: Total Average AUC of the compound of Example 2 as Florfenicol Equivalent), the AUC is 30400 ng·h/mL. Besides, the “converted to Florfenicol once absorbed from SC site” value in series [2] (subcutaneous administration) was determined as 83.5%. In addition, the “Treatment Failure (on day 10)” value in series [3] (single S/C dose equivalent to 40 mg/kg of florfenicol (Nuflor 40 mg/kg; Example 2 48 mg/kg), animals failing out of animals treated) is 5 out of 24. Moreover, the “Temp. (day 0)” value in series [3] (single S/C dose equivalent to 40 mg/kg of florfenicol (Nuflor 40 mg/kg; Example 2 48 mg/kg), day 0) turned out to be 40.4 °C. Moreover, in series [3] (single S/C dose equivalent to 40 mg/kg of florfenicol (Nuflor 40 mg/kg; Example 2 48 mg/kg), day 3), the “Temp. (day 3)” value was 38.8 °C. Moreover, the “Temp. (day 10)” value in series [3] (single S/C dose equivalent to 40 mg/kg of florfenicol (Nuflor 40 mg/kg; Example 2 48 mg/kg), day 10) stood at 38.7 °C. In addition, the “efficacy compared with Nuflor” value in series [3] (single SC dose, cattle with BRD) is “comparable”. Also, the “Florfenicol released from prodrugs (% of total) after treatment with bovine serum” value in series [4] (0 h) is “BQL^a”. Besides, the “Florfenicol released from prodrugs (% of total) after treatment with bovine serum” value in series [4] (1 h) is recorded as “BQL”. Besides, in series [4] (2 h), the “Florfenicol released from prodrugs (% of total) after treatment with bovine serum” value is recorded as “BQL”. Besides, in series [5], the “Syringeability measurement: Dripping time” value is 207 ± 3 s and the “Syringeability measurement: Relative to NUFLOR” value was 0.89. For the same molecule, the “Solubility at selected concentration of contained florfenicol” value (from here on “Solubility at selected concentration”) in series [6] (10% weight/volume florfenicol) is “soluble”. The “Solubility at selected concentration” value in series [6] (20% weight/volume florfenicol) is “soluble”. Moreover, the “Solubility at selected concentration” value in series [6] (25% weight/volume florfenicol) is listed as “soluble”. Also, in series [6] (30% weight/volume florfenicol), the “Solubility at selected concentration” value is given as “soluble”. The “Solubility at selected concentration” value in series [6] (35% weight/volume florfenicol) was “soluble”. Further, the “Solubility at selected concentration” value in series [6] (37% weight/volume florfenicol) is on record as “soluble”. Besides, the “Solubility at selected concentration” value in series [6] (40% weight/volume florfenicol) is given as “insoluble”.

By solubility is commonly meant the concentration that dissolves in the medium under given conditions. A higher solubility goes with a readily soluble substance. As usually defined, the AUC is the area under the concentration-time curve, a measure of exposure. By melting point is commonly meant the temperature of the solid-liquid transition.
